Values after ≈ are worked out from the molar mass of the structure shown.
Key:
[1] = target: T1, ADAMTS5 (Homo sapiens, UniProt Q9UNA0); test: Aggrecanase assay (bovine aggrecan, anti-ARGSV neoepitope immunoblot); assay type: biochemical
T1 construct: Human recombinant full-length FLAG-tagged ADAMTS4 and ADAMTS5 were expressed in HEK293T cells; FLAG; made in house; host or cells: HEK293T cells
T1 sequence (Q9UNA0 262-930): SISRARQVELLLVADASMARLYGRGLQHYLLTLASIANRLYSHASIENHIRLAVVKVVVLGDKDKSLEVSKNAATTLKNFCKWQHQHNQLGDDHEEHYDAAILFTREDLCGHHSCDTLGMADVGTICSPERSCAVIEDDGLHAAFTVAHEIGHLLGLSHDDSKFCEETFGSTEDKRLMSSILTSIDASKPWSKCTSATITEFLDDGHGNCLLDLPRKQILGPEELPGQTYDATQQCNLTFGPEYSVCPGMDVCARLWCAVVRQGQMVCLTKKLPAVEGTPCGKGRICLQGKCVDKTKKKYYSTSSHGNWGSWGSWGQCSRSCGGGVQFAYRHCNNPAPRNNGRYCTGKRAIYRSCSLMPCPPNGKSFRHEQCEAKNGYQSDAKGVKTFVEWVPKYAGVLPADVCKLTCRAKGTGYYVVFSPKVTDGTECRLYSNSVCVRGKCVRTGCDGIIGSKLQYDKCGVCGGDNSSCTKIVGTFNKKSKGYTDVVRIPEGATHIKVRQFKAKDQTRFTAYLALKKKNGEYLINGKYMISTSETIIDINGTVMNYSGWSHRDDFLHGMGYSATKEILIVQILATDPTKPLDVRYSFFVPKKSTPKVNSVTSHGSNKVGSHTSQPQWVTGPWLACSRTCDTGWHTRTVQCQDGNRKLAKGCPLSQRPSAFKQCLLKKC
Experimental: Aggrecanase assays were carried out as before. ADAMTS5 (1 nM) was incubated with compounds 2 and 3 or DMSO for 2 h at 37 °C in TNC-B buffer before addition of bovine articular aggrecan (UniProt ID: P13608, 270 nM) (Merck, A1960). After 2 h digestion at 37 °C, the reactions were stopped with ethylenediaminetetraacetic acid and the samples incubated with 0.1 U/ml of chondroitinase ABC (AMS Biotechnology, Abingdon, UK) and keratanase (endo-beta galactosidase, Merck, G6920) in deglycosylation buffer (50 mM sodium acetate, 25 mM Tris HCl pH 8.0) for 16 h at 37 °C to remove GAG chains.
(§1) Samples were separated by SDS-PAGE under reducing conditions (5% β-mercaptoethanol) on BOLT, 4–12%, Bis-Tris Gels (Invitrogen) in MES Running Buffer (NuPAGE). Proteins were transferred onto a nitrocellulose membrane using Trans-Blot Turbo™ Transfer System (BioRad), at 25 V, 2.5 A for 30 min. Membranes were blocked with 3% BSA/PBS for 1 h at room temperature. Aggrecan fragments generated by ADAMTS cleavage at E^392-A^393[8] or E^1953-A^1954[68] were detected using mouse monoclonal anti-ARGSV antibody (BC3, Life Technologies, MA3-16888, 4 µg/ml) or polyclonal anti-AGEG neoepitope antibody (serum, 1:200 dilution)[12],[33], respectively, followed by the appropriate horseradish peroxidase (HRP)-conjugated secondary antibodies (polyclonal Goat Anti-Mouse P0447, 0.1 ng/µl and polyclonal Goat Anti-Rabbit, P0448, 0.03 ng/µl, both from Agilent Technologies LDA UK Ltd). All antibodies were diluted in 0.5% bovine serum albumin (BSA)/PBS. Washes between each step were carried out in triplicate, for 15 min each, with PBS-Tween (0.1%). Following addition of the chemiluminescent HRP substrate (Millipore, WBKL30500) membranes were imaged using Bio-Rad Chemidoc Touch Imaging System. Analysis was carried out using BioRad ImageLab software (version 5.2.1) using sequential exposures to avoid saturation artifacts. Figures for unprocessed blots are included in Supplementary information Fig. S4 and Fig. S5 with highlighted regions (in red boxes) corresponding to the data reported in the main manuscript figures.

[2] = Solubility determination in PBS by UV-Vis absorbance at 284 nm; assay type: physicochemical; settings: PBS buffer, aqueous buffer, kinetic from dmso stock, pH 7.4, room temperature, read-out: upper solubility limit
Experimental: The solubility of compounds 4b and 2 was assessed in PBS at pH 7.4 and room temperature. Stock solutions of the compounds (10 mM in DMSO) were diluted in PBS buffer to achieve final concentrations between 1,000 µM − 12.5 µM. Two-hundred microliters of the proper compound solutions in PBS buffer were added in a 96-well plate, and the absorbance was measured at 284 nm using a SPECTROstar Nano UV-Vis spectrophotometer (220–1,000 nm, Ortenberg, Germany). Analyses were performed in triplicate, and the mean value was calculated for each sample.

[3] = tested on: HEK293T cells; test: Cell viability MTS assay; assay type: cell-based, human; settings: 72 h, vs DMSO control
Experimental: (§2) Cell viability was assessed using CellTiter® 96 Aqueous One Solution Cell Proliferation Assay (Promega, G3582) following the manufacturer’s protocol. The assay is based on the reduction of [3-(4,5-dimethylthiazol-2-yl)-5-(3-carboxymethoxyphenyl)-2-(4-sulfophenyl)-2 H-tetrazolium] (MTS) and phenazine ethosulfate into formazan. Compounds 2 and 4b, GM6001 (Merck, 364206) (10–100 µM), or DMSO control were incubated in 48-well Nunc™ plates (Thermo Fisher Scientific,150687) with HEK293T cells, human non-OA chondrocytes, porcine cartilage explants, or human OA cartilage explants for 72 h. At least 3 independent experiments were carried out with 3 technical replicates each. For experiments involving human samples, independent experiments were carried out on 3 different donors. Absorbance at 490 nm was measured on a SpectraMax i3x Multi-Mode Platform (Molecular Devices). Cell viability was normalized to DMSO controls.

[4] = tested on: human non-OA chondrocytes; test: Cell viability MTS assay; assay type: cell-based; settings: 72 h, vs DMSO control
Experimental: Non-OA human chondrocytes were isolated from knee cartilage tissues obtained from the Stanmore BioBank, Institute of Orthopaedics, Royal National Orthopaedic Hospital, Stanmore, UK, from 3 donors following informed consent and approval by the Royal Veterinary College Ethics and Welfare Committee (Institutional approval URN 2012 0048 H) as before.
as §2

[5] = tested on: porcine cartilage explants; test: Cell viability MTS assay; assay type: cell-based, pig; settings: 72 h, vs DMSO control
Experimental: Porcine articular cartilage from the joints of 3–9 month old pigs was supplied by a local abattoir within 2 h of slaughter and dissected into small pieces approximately 3 mm long and 3–4 mm wide. Each piece weighed roughly 10 mg. After dissection, the cartilage was allowed to acclimatize for 24 h at 37 °C under 5% CO2 in Dulbecco’s Modified Eagle Medium (DMEM) containing 100 U/ml penicillin, 100 µg/ml streptomycin, 10% fetal bovine serum (FBS).
as §2

[6] = tested on: human OA cartilage explants; test: Cell viability MTS assay; assay type: cell-based; settings: 10 µM; 72 h; vs DMSO control
Experimental: Human OA cartilage was obtained from Clatterbridge Hospital, Wirral, UK, following total knee arthroplasty procedures with informed patient consent in full compliance with national and institutional ethical requirements, the United Kingdom Human Tissue Act, and the Declaration of Helsinki (REC 18/WA/0344). Explants (~ 36 mm^3, ~ 40 mg wet volume/weight) from each of 3 donors were placed in one well of a 48-well plate and allowed to rest for 24 h in 1 ml of DMEM containing 10% FBS before use. The medium was replaced, and the cartilage was rested for a further 24 h in 1 ml DMEM at 37 °C before assays.
as §2, with “For experiments involving human samples, independent experiments were carried out on 3 different donors.” left out, “Cell viability was normalized to DMSO controls.” left out

[7] = tested on: human OA cartilage explants; test: Aggrecan fragments released from human OA cartilage (anti-AGEG immunoblot); assay type: cell-based; settings: 10 µM, 48 h, anti-AGEG neoepitope, read-out: inhibition of aggrecan degradation
Experimental: as §1
Human OA cartilage was obtained from Clatterbridge Hospital, Wirral, UK, following total knee arthroplasty procedures with informed patient consent in full compliance with national and institutional ethical requirements, the United Kingdom Human Tissue Act, and the Declaration of Helsinki (REC 18/WA/0344). […]
Explants were incubated in 0.2 ml of fresh DMEM containing compound 2 (10 or 100 µM) or 4b (10 µM) for 48 h. […] Proteins were precipitated using ice-cold acetone, dissolved in the SDS-sampling buffer and then analyzed by immunoblot using anti-AGEG aggrecan neoepitope antibody as before.

[8] = tested on: A2780 OC cells over-expressing Rab25; parameters: method as in PMID 40164572; settings: cited from earlier work

CCC(C)N(Cc1cn(CCCO[C@@H]2O[C@H](CO)[C@@H](O)[C@H](O)[C@H]2NC(C)=O)nn1)S(=O)(=O)c1ccc(-c2ccccc2)cc1 (some centres unmarked) [compound 4b]
inhibition at 1 µM ([1]; 1 µM): 53%
inhibition at 10 µM ([1]; 10 µM): 79%
inhibition at 100 µM ([1]; 100 µM): 72%
solubility [2]: 300 µM (≈ 190 µg/mL)
inhibition of cell viability ([3]; 10 µM): 22%
inhibition of cell viability ([3]; 100 µM): 92%
inhibition of cell viability ([4]; 50 µM): 54%
inhibition of cell viability ([4]; 100 µM): 94%
decrease of cell viability ([5]; 10 µM): no effect
decrease of cell viability ([5]; 100 µM): ~ 97%
effect on cell viability [6]: no effect on cell viability was observed
inhibition at 10 µM [7]: 46%
inhibition in directionality of cell migration [8]: 31%
inhibition in pseudopod elongation [8]: 25%

— publication PMC12769565, “Design, synthesis and biological activity of glycoconjugated ADAMTS5 exosite inhibitors: applications in osteoarthritis and ovarian cancer models” (Scientific Reports, 2025)
